From patent US20220388964A1 (HiberCell, Inc., priority 2019, published 2022)
pIC50: −log10 of the molar value.

Target: GCN2 (Homo sapiens, UniProt Q9P2K8)
Assay: TR-FRET biochemical assay for inhibition of GCN2 (Example 106, for Example 1-4BB)
Settings: Table 8

Chain of GCN2 (Q9P2K8 whole entry): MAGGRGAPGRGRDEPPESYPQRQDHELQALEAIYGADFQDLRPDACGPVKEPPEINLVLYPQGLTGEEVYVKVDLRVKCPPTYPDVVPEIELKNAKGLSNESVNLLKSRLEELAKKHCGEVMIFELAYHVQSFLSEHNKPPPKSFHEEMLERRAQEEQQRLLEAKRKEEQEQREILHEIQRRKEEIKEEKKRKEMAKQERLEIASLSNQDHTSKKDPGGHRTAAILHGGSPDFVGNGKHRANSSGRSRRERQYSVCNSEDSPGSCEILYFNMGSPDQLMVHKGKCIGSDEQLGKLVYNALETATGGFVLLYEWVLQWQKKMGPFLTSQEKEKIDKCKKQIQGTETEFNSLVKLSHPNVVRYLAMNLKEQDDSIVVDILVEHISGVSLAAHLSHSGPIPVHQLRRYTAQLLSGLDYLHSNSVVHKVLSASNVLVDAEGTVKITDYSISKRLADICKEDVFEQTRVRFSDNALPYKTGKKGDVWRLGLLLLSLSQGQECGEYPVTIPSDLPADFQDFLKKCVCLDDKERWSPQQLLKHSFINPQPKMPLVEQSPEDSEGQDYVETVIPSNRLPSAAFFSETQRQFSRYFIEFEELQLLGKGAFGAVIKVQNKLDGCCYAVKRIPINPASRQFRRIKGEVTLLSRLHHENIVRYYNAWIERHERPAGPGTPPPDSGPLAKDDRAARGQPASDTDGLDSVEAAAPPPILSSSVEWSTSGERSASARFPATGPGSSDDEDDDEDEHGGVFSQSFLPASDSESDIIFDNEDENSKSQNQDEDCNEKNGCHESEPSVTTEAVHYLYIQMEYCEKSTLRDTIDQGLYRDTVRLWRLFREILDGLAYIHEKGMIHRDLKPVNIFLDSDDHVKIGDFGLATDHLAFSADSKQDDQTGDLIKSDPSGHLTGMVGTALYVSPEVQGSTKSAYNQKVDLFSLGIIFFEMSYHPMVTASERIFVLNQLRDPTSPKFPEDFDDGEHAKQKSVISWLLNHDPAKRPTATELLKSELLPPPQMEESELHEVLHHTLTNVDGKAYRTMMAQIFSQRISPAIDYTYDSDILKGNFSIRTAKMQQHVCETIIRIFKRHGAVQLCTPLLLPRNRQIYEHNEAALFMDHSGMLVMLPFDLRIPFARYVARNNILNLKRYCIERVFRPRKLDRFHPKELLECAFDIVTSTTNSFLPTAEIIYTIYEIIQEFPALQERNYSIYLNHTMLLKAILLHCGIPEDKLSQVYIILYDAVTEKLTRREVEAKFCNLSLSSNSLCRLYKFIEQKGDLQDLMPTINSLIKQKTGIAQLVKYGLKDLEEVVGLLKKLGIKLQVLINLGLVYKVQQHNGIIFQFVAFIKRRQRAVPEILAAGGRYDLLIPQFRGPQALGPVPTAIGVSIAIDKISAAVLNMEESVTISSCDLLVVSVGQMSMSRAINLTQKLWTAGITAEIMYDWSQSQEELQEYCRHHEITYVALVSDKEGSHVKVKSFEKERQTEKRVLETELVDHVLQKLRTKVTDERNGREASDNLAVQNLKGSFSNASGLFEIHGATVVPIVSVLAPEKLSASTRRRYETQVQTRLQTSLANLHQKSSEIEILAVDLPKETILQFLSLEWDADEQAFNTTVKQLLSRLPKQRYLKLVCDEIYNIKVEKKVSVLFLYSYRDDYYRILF

Row | pIC50 | Structure (SMILES)
1 | > 6.30 | O=S(=O)(Nc1ccc(F)c(-c2ccc3c(-c4ncc[nH]4)n[nH]c3c2F)c1F)c1cccc(O)c1F [Example 2AQ, N-(2,4-difluoro-3-(7-fluoro-3-(1H-imidazol-2-yl)-1H-indazol-6-yl)phenyl)-2-fluoro-3-hydroxybenzene-sulfonamide]
2 | > 6.30 | Cc1ccc(C)c(S(=O)(=O)Nc2ccc(F)c(-c3ccc4c(-c5ncc[nH]5)n[nH]c4c3F)c2F)c1 [Example 2BI, N-(2,4-difluoro-3-(7-fluoro-3-(1H-imidazol-2-yl)-1H-indazol-6-yl)phenyl)-2,5-dimethylbenzenesulfonamide]
3 | > 6.30 | O=S(=O)(Nc1ccc(F)c(-c2ccc3c(-c4ncc[nH]4)n[nH]c3c2F)c1F)c1cncc(Cl)c1 [Example 2CE]
4 | 5.60 to 6.30 | COc1ncc(Cl)cc1S(=O)(=O)Nc1ccc(F)c(-c2ccc3c(-c4ccccn4)n[nH]c3c2F)c1F [Example 2CD, 5-chloro-N-(2,4-difluoro-3-(7-fluoro-3-(pyridin-2-yl)-1H-indazol-6-yl)phenyl)-2-methoxypyridine-3-sulfonamide]
5 | 5.60 to 6.30 | COc1ncc(Cl)cc1S(=O)(=O)Nc1ccc(F)c(-c2ccc3c(N)n[nH]c3c2F)c1F [Example 7, N-(3-(3-Amino-7-fluoro-1H-indazol-6-yl)-2,4-difluorophenyl)-5-chloro-2-methoxypyridine-3-sulfonamide]
6 | > 6.30 | COc1ncc(Cl)cc1S(=O)(=O)Nc1ccc(F)c(-c2ccc3c(C(=O)NCCN(C)C)n[nH]c3c2F)c1F [Example 2CF, 6-(3-((5-chloro-2-methoxy-pyridine)-3-sulfonamido)-2,6-difluorophenyl)-N-(2-(di-methylamino)ethyl)-7-fluoro-1H-indazole-3-carboxamide]
7 | > 6.30 | Cc1cccc(S(=O)(=O)Nc2ccc(F)c(-c3ccc4c(-c5ncc[nH]5)n[nH]c4c3F)c2F)c1C [Example 2AI, N-(2,4-difluoro-3-(7-fluoro-3-(1H-imidazol-2-yl)-1H-indazol-6-yl)phenyl)-2,3-dimethylbenzenesulfonamide]
8 | 5.00 to 5.60 | O=S(=O)(Nc1ccc(F)c(-c2ccc3c(-c4ncc[nH]4)n[nH]c3c2F)c1F)c1cccnc1 [Example 2CO, N-(2,4-difluoro-3-(7-fluoro-3-(1H-imidazol-2-yl)-1H-indazol-6-yl)phenyl)pyridine-3-sulfonamide]

Same assay, conditions: Table 9

Row | pIC50 | Structure (SMILES)
9 | > 6.30 | COc1ncc(C#N)cc1S(=O)(=O)Nc1cc(F)cc(-c2ccc3c(C(=O)NCCCO)n[nH]c3c2F)c1F [Example 3DP, 6-(3-((5-cyano-2-methoxy-pyridine)-3-sulfonamido)-2,5-difluorophenyl)-7-fluoro-N-(3-hydroxypropyl)-1H-indazole-3-carboxamide]
10 | > 6.30 | COc1ncc(Cl)cc1S(=O)(=O)Nc1cc(F)cc(-c2ccc3c(C(N)=O)n[nH]c3c2F)c1F [Example 3CF, 6-(3-((5-chloro-2-methoxy-pyridine)-3-sulfonamido)-2,5-difluorophenyl)-7-fluoro-1H-indazole-3-carboxamide]
11 | > 6.30 | O=C(NCCCO)c1n[nH]c2c(F)c(-c3c(F)ccc(NS(=O)(=O)c4cc(F)cc5c4CCC5O)c3F)ccc12 (stereo not drawn) [Example 4T]
12 | < 5.00 | COc1ncccc1S(=O)(=O)Nc1ccnc(-c2ccc3c(-c4ncc[nH]4)n[nH]c3c2F)c1C#N [Example 3G, N-(3-cyano-2-(7-fluoro-3-(1H-imidazol-2-yl)-1H-indazol-6-yl)pyridin-4-yl)-2-methoxypyridine-3-sulfonamide]
13 | > 6.30 | Cc1c(CO)cc(F)cc1S(=O)(=O)Nc1ccc(F)c(-c2ccc3c(C(=O)Nc4cn[nH]c4)n[nH]c3c2F)c1F [Example 4K]
14 | > 6.30 | COc1ncc(Cl)cc1S(=O)(=O)Nc1cc(F)cc(-c2ccc3c(C(=O)N[C@H]4CCN(C)C4)n[nH]c3c2F)c1F [Example 3BM, 6-(3-((5-chloro-2-methoxy-pyridine)-3-sulfonamido)-2,5-difluorophenyl)-7-fluoro-N-((S)-1-methylpyrrolidin-3-yl)-1H-indazole-3-carboxamide]
15 | > 6.30 | COc1ncc(Cl)cc1S(=O)(=O)Nc1cccc(-c2cc3[nH]nc(C(=O)NCCCN(C)C)c3cn2)c1F [Example 35, 6-[3-[(5-chloro-2-methoxy-3-pyridyl)sulfonylamino]-2-fluoro-phenyl]-N-[3-(dimethylamino)propyl]-1H-pyrazolo[4,3-c]pyridine-3-carboxamide]
16 | > 6.30 | COc1ncc(F)cc1S(=O)(=O)Nc1ccc(F)c(-c2ccc3c(C(=O)NC[C@H](O)CO)n[nH]c3c2F)c1F [Example 3AI, 6-(2,6-difluoro-3-((5-fluoro-2-methoxypyridine)-3-sulfonamido)phenyl)-N-((R)-2,3-dihydroxypropyl)-7-fluoro-1H-indazole-3-carboxamide]
17 | > 6.30 | Cc1ncc(C#N)cc1S(=O)(=O)Nc1ccc(F)c(-c2ccc3c(-c4ncc[nH]4)n[nH]c3c2F)c1F [Example 3I, 5-cyano-N-(2,4-difluoro-3-(7-fluoro-3-(1H-imidazol-2-yl)-1H-indazol-6-yl)phenyl)-2-methylpyridine-3-sulfonamide]
18 | > 6.30 | COc1ncc(F)cc1S(=O)(=O)Nc1cccc(-c2ccc3c(C(=O)NCCCO)n[nH]c3c2F)c1F [Example 26, 7-Fluoro-6-(2-fluoro-3-((5-fluoro-2-methoxypyridine)-3-sulfonamido)phenyl)-N-(3-hydroxypropyl)-1H-indazole-3-carboxamide]
19 | 5.60 to 6.30 | COc1ncc(F)cc1S(=O)(=O)Nc1ccc(F)c(-c2ccc3c(C(=O)NCCNC(C)=O)n[nH]c3c2F)c1F [Example 23, N-(2-Acetamidoethyl)-6-(2,6-difluoro-3-((5-fluoro-2-methoxypyridine)-3-sulfonamido)phenyl)-7-fluoro-1H-indazole-3-carboxamide]
20 | > 6.30 | COc1ncc(F)cc1S(=O)(=O)Nc1cc(F)cc(-c2ccc3c(-c4ncc[nH]4)n[nH]c3c2F)c1F [Example 3AS, N-(2,5-difluoro-3-(7-fluoro-3-(1H-imidazol-2-yl)-1H-indazol-6-yl)phenyl)-5-fluoro-2-methoxypyridine-3-sulfonamide]
21 | > 6.30 | COc1nc(C)c(Cl)cc1S(=O)(=O)Nc1ccc(F)c(-c2ccc3c(C(=O)NCCCO)n[nH]c3c2F)c1F [Example 3DO, 6-(3-((5-chloro-2-methoxy-6-methylpyridine)-3-sulfon-amido)-2,6-difluorophenyl)-7-fluoro-N-(3-hydroxypropyl)-1H-indazole-3-carboxamide]
22 | 5.00 to 5.60 | COc1ncc(F)cc1S(=O)(=O)Nc1ccnc(-c2ccc3c(-c4ncc[nH]4)n[nH]c3c2F)c1C#N [Example 29, N-(3-Cyano-2-(7-fluoro-3-(1H-imidazol-2-yl)-1H-indazol-6-yl)pyridin-4-yl)-5-fluoro-2-methoxypyridine-3-sulfonamide]
23 | 5.60 to 6.30 | COc1ncc(F)cc1S(=O)(=O)Nc1cccc(-c2ccc3c(-c4ncc[nH]4)n[nH]c3c2Cl)c1F [Example 18, N-(3-(7-Chloro-3-(1H-imidazol-2-yl)-1H-indazol-6-yl)-2-fluorophenyl)-5-fluoro-2-methoxypyridine-3-sulfonamide]
24 | 5.60 to 6.30 | Cc1ncc(F)cc1S(=O)(=O)Nc1cccc(-c2ccc3c(-c4ncc[nH]4)n[nH]c3c2Cl)c1F [Example 3N, N-(3-(7-chloro-3-(1H-imidazol-2-yl)-1H-indazol-6-yl)-2-fluorophenyl)-5-fluoro-2-methylpyridine-3-sulfonamide]
